# Data reported in patent publication US20240246992A1, “MACROCYCLIC LRRK2 KINASE INHIBITORS” (LES LABORATOIRES SERVIER, priority 2021, published 2024).
# Molecular target: human recombinant LRRK2 protein (Homo sapiens, UniProt Q5S007)
# Assay: LRRK2 kinase activity assay (ADP-Glo, LRRKtide peptide)
# Assay type: biochemical
# Details: human recombinant LRRK2 wt, LRRKtide peptide and ATP, 1 h at 37° C.
# Outline: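 ADP-Glo luminescence read-out of a peptide assay: compound, ATP and LRRKtide substrate combined with recombinant human LRRK2 and incubated at 37 °C for 1 h. Ten-point data, N=2, curve-fitted to IC50.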
# Sequence of human recombinant LRRK2 protein (Q5S007 whole entry): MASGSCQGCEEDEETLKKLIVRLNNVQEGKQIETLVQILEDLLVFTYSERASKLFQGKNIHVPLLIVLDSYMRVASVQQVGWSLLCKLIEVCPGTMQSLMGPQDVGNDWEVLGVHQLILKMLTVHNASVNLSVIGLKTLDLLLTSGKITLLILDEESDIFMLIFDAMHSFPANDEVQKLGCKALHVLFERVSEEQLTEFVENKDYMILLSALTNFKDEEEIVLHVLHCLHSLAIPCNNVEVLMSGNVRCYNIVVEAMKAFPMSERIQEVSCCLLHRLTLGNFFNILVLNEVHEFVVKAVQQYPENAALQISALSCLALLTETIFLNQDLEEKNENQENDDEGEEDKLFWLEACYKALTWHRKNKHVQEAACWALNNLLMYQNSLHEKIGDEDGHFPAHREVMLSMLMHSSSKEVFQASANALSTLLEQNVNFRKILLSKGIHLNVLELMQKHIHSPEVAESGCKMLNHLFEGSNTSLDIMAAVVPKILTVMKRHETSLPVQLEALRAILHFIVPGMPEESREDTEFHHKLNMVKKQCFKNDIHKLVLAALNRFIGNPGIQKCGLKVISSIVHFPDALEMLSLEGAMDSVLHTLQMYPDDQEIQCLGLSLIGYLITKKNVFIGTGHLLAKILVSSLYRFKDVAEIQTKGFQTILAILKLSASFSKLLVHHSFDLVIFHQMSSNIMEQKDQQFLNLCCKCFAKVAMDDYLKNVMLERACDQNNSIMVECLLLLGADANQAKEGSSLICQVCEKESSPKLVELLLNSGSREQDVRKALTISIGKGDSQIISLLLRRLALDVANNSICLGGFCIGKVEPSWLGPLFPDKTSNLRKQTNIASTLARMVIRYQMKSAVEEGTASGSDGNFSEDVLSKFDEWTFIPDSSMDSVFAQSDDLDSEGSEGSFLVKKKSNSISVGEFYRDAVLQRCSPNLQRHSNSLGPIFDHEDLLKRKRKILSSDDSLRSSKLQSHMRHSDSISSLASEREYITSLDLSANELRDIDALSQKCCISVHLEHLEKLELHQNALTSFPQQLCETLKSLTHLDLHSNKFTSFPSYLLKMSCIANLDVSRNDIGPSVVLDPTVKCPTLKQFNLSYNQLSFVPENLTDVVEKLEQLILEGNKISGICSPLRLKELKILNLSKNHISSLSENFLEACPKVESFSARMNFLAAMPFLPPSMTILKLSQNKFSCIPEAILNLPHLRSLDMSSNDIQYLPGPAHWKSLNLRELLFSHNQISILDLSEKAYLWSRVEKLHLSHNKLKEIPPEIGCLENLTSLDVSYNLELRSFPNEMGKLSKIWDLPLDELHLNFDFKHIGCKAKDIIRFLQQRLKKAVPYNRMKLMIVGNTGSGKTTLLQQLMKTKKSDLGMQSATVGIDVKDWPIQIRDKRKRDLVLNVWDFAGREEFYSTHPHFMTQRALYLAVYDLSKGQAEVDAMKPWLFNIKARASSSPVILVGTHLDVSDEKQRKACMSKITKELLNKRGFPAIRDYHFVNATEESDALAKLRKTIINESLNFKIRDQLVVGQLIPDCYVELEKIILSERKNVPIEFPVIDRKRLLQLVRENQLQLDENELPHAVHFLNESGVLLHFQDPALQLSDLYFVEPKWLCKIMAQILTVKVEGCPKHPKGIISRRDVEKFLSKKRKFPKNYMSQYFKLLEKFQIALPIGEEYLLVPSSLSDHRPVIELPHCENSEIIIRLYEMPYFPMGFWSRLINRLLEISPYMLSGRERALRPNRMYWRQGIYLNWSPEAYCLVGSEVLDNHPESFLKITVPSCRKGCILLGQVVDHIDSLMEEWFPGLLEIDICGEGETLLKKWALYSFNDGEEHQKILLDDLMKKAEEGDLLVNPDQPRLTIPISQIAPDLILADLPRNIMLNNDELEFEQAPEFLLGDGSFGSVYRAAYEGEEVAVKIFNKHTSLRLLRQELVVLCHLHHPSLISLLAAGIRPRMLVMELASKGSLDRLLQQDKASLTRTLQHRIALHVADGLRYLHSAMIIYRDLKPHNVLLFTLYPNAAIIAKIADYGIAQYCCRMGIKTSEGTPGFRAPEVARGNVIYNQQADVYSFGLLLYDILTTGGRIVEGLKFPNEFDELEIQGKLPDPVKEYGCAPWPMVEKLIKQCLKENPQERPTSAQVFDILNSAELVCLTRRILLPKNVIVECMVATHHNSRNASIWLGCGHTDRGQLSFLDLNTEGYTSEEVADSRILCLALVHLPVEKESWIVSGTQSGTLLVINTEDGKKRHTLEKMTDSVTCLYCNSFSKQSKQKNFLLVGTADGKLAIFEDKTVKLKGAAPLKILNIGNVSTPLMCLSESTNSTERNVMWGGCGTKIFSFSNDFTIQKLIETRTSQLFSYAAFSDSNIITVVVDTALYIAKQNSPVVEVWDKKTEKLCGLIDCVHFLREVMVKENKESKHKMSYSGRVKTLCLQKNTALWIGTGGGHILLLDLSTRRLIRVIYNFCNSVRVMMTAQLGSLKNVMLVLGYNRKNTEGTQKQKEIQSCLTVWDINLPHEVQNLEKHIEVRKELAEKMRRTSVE
row,SMILES,IC50
1,"[2H]C1([2H])OCCn2cc(cn2)-c2n[nH]c3ccc(cc23)OC[C@H](C)OC1([2H])[2H] [Example 107, (12S)-12-methyl(9,9,10,10-^2H4)-8,11,14-trioxa-4,5,19,20-tetraazatetracyclo [13.5.2.1^2,5.0^18,21]tricosa-1(20),2(23),3,15,17,21-hexaene]",< 10 nM
2,"c1cc2[nH]nc3c2cc1OCCCCCOCCn1cc-3cn1 [Example 108, 8,14-dioxa-4,5,19,20-tetraazatetracyclo[13.5.2.1^2,5.0^18,21]tricosa-1(20),2(23), 3,15(22),16,18(21)-hexaene]",< 10 nM
3,"[2H]C1([2H])OCCO[C@@H](C)COc2ccc3[nH]nc(c3c2)-c2cnn(c2)C1([2H])[2H] [Example 110, (12S)-12-methyl(6,6,7,7-2H4)-8,11,14-trioxa-4,5,19,20-tetraazatetracyclo [13.5.2.1^2,5.0^18,21]tricosa-1(20),2(23),3,15(22),16,18(21)-hexaene]",< 10 nM
4,"C[C@H]1OCCOCCn2cc(cn2)-c2n[nH]c3ccc(cc23)O[C@@H]1C [Example 113, (12R,13R)-12,13-dimethyl-8,11,14-trioxa-4,5,19,20-tetraazatetracyclo [13.5.2.1^2,5.0^18,21]tricosa-1(20),2(23),3,15(22),16,18(21)-hexaene]",< 10 nM
5,"C[C@@H]1OCCOCCn2cc(cn2)-c2n[nH]c3ccc(cc23)O[C@H]1C [Example 114, (12S,13S)-12,13-dimethyl-8,11,14-trioxa-4,5,19,20-tetraazatetracyclo [13.5.2.1^2,5.0^18,21]tricosa-1(20),2(23),3,15(22),16,18(21)-hexaene]",< 10 nM
6,"C[C@@H]1CCO[C@@H](C)CCOc2ccc3[nH]nc(c3c2)-c2cnn1c2 [Example 116, (6R,10S)-6,10-dimethyl-9,13-dioxa-4,5,18,19-tetraazatetracyclo[12.5.2.1^2,5.0^17,20]docosa-1(19),2(22),3,14(21),15,17(20)-hexaene]",< 100 nM
7,"C[C@@H]1C[C@@H](C)n2cc(cn2)-c2n[nH]c3ccc(cc23)OCCCO1 [Example 117, (6R,8R)-6,8-dimethyl-9,13-dioxa-4,5,18,19-tetraazatetracyclo[12.5.2.1^2,5.0^17,20] docosa-1(19),2(22),3,14(21),15,17(20)-hexaene]",< 100 nM
8,"C[C@@H]1CCOCC(F)(F)Cn2cc(cn2)-c2n[nH]c3ccc(cc23)O1 [Example 120, (12R)-7,7-difluoro-12-methyl-9,13-dioxa-4,5,18,19-tetraazatetracyclo [12.5.2.1^2,5.0^17,20]docosa-1(19),2(22),3,14(21),15,17(20)-hexaene]",< 10 nM
9,"C[C@H]1CCCOCCn2ncc(n2)-c2n[nH]c3ccc(cc23)O1 [Example 122, (12S)-12-methyl-8,13-dioxa-4,5,18,19,22-pentaazatetracyclo[12.5.2.1^2,5.0^17,20]docosa-1(19),2(22),3,14(21),15,17(20)-hexaene]",< 10 nM
10,"C[C@@H]1CCOc2ccc3[nH]nc(c3c2)-c2cnn(c2)[C@H](C)CCO1 [Example 123, (6R,10R)-6,10-dimethyl-9,13-dioxa-4,5,18,19-tetraazatetracyclo[12.5.2.1^2,5.0^17,20]docosa-1(19),2(22),3,14(21),15,17(20)-hexaene]",< 10 nM
11,"C[C@@H]1CCCOCCn2ncc(n2)-c2n[nH]c3ccc(cc23)O1 [Example 124, (12R)-12-methyl-8,13-dioxa-4,5,18,19,22-pentaazatetracyclo [12.5.2.1^2,5.0^17,20]docosa-1(19),2(22),3,14(21),15,17(20)-hexaene]",< 10 nM
12,"C[C@@H]1CCCOC[C@@H](C)n2cc(cn2)-c2n[nH]c3ccc(cc23)O1 [Example 128, (6R,12R)-6,12-dimethyl-8,13-dioxa-4,5,18,19-tetraazatetracyclo[12.5.2.1^2,5.0^17,20]docosa-1(19),2(22),3,14(21),15,17(20)-hexaene]",< 10 nM
13,"C[C@H]1COc2ccc3[nH]nc(c3c2)-c2cnn(c2)CCCOCCO1 [Example 129, (13S)-13-methyl-9,12,15-trioxa-4,5,20,21-tetraazatetracyclo[14.5.2.1^2,5.0^19,22]tetracosa-1(21),2(24),3,16(23),17,19(22)-hexaene]",< 100 nM

# Continued, values first:
row,IC50,SMILES
1,< 100 nM,"C[C@@H]1CCOCC(F)(F)COc2ccc3[nH]nc(c3c2)-c2cnn1c2 [Example 109, (6R)-11,11-difluoro-6-methyl-9,13-dioxa-4,5,18,19-tetraazatetracyclo [12.5.2.1^2,5.0^17,20]docosa-1(19),2(22),3,14(21),15,17(20)-hexaene]"
2,< 100 nM,"FC1(F)COCCCn2cc(cn2)-c2n[nH]c3ccc(cc23)OC1 [Example 111, 11,11-difluoro-9,13-dioxa-4,5,18,19-tetraazatetracyclo[12.5.2.1^2,5.0^17,20] docosa-1(19),2(22),3,14(21),15,17(20)-hexaene]"
3,< 10 nM,"C[C@H]1COc2ccc3[nH]nc(c3c2)-c2cnn(c2)CCCCCO1 [Example 112, (12S)-12-methyl-11,14-dioxa-4,5,19,20-tetraazatetracyclo[13.5.2.1^2,5.0^18,21] tricosa-1(20),2(23),3,15(22),16,18(21)-hexaene]"
4,< 10 nM,"c1cc2[nH]nc3c2cc1OCCCCOCCn1ncc-3n1 [Example 115, 8,13-dioxa-4,5,18,19,22-pentaazatetracyclo[12.5.2.1^2,5.0^17,20]docosa-1(19),2(22),3,14(21),15,17(20)-hexaene]"
5,< 10 nM,"FC1(F)COCCCOc2ccc3[nH]nc(c3c2)-c2cnn(c2)C1 [Example 118, 7,7-difluoro-9,13-dioxa-4,5,18,19-tetraazatetracyclo[12.5.2.1^2,5.0^17,20] docosa-1(19),2(22),3,14(21),15,17(20)-hexaene]"
6,< 1000 nM,"C[C@H]1COCCCOCc2nc(cn2C)-c2n[nH]c3ccc(cc23)O1 [Example 119, (13S)-4,13-dimethyl-7,11,14-trioxa-4,19,20,23-tetraazatetracyclo [13.5.2.1^2,5.0^18,21]tricosa-1(20),2,5(23),15(22),16,18(21)-hexaene]"
7,< 10 nM,"C1=C/COCCOc2ccc3[nH]nc(c3c2)-c2cnn(c2)CC/1 [Example 121, (8E)-11,14-dioxa-4,5,19,20-tetraazatetracyclo[13.5.2.1^2,5.0^18,21]tricosa-1(20),2(23),3,8,15(22),16,18(21)-heptaene]"
8,< 10 nM,"C[C@@H]1CCOCCCc2ncn(n2)-c2n[nH]c3ccc(cc23)O1 [Example 125, (12R)-12-methyl-9,13-dioxa-2,4,18,19,22-pentaazatetracyclo[12.5.2.1^2,5.0^17,20]docosa-1(19),3,5(22),14(21),15,17(20)-hexaene]"
9,< 10 nM,"C[C@@H]1C[C@@H](C)Oc2ccc3[nH]nc(c3c2)-c2cnn(c2)CCCO1 [Example 126, (10R,12R)-10,12-dimethyl-9,13-dioxa-4,5,18,19-tetraazatetracyclo [12.5.2.1^2,5.0^17,20]docosa-1(19),2(22),3,14(21),15,17(20)-hexaene]"
10,< 10 nM,"C[C@@H]1CCn2ncc(n2)-c2n[nH]c3ccc(cc23)O[C@H](C)CCO1 [Example 127, (8R,12R)-8,12-dimethyl-9,13-dioxa-4,5,18,19,22-pentaazatetracyclo [12.5.2.1^2,5.0^17,20]docosa-1(19),2(22),3,14(21),15,17(20)-hexaene]"
